Experimental data taken from US20100041710A1, “PENETRATION ENHANCER FOR INSECTICIDES” (priority 2006, published 2010).
Where two headings read alike, the source gives them in different places.

Assays:
[1] = test system: crop plant; test: Crop plant tolerance tests; details: compared with other alkyl ester additives
[2] = Method: In this test, the penetration of active substances through enzymatically isolated cuticles of apple tree leaves was measured. The cuticles represent all green plant parts, such as leaf blade, petiole, stalk, trunk, hypocotyl and many fruits.
Leaves which were cut off in the stage of full development of apple trees of the Golden Delicious variety were used. The isolation of the cuticles was effected in a manner such that • first, leaf disks marked on the underside with dye and punched out were filled by means of vacuum infiltration with a pectinase solution (0.2 to 2% strength by weight) buffered to a pH between 3 and 4, • sodium azide was then added and • the leaf disks thus treated were allowed to stand until disintegration of the original leaf structure and detachment of the noncellular cuticle.
Thereafter, only those cuticles of the upper sides of the leaves which were free of stomata and hairs were further used. They were washed several times alternately with water and a buffer solution at pH 7. The cleaned cuticles obtained were finally drawn onto small Teflon plates and smoothed and dried with a gentle air jet.
In the next step, the cuticle membranes thus obtained were placed in stainless steel diffusion cells (=transport chambers) for membrane transport investigations. For this purpose, the cuticles were placed by means of forceps centrally on the silicone grease-coated edges of the diffusion cells and closed with a likewise greased ring. The arrangement was chosen so that the morphological outside of the cuticles faced outward, i.e. toward the air, while the original inside faced the interior of the diffusion cell. The diffusion cells were filled with water or with a mixture of water and solvent.
For determining the penetration, in each case 10 μl of a spray liquor of the composition mentioned in the examples were applied to the outside of a cuticle.
In each case the solvents listed below in the table (tap water or a mixture with 20% by weight of acetone/80% by weight of tap water) were used in the spray liquors.
After the application of the spray liquors, in each case the solvent was allowed to evaporate, and in each case the chambers were then turned around and placed in thermostated trays, air having a defined temperature and atmospheric humidity being blown onto the outside of the cuticle. The incipient penetration therefore took place at a relative humidity of 60% and a set temperature of 20 or 25° C. The active substance penetration was measured with radioactively marked active substance.

[3] = Table 3, 0.1 g/l of imidacloprid in tap water, apple leaf cuticles, 20-25° C., rel. humidity 56-60%, mean of 10 repetitions
[4] = Table 2, 0.3 g/l of active substance, tap water (thiacloprid) or acetone/tap water 20/80% by weight (spirotetramat), 20-25° C., rel. humidity 56-60%, mean of 4-8 repetitions
[5] = Table 1, 0.18 g/l of thiacloprid in tap water, apple leaf cuticles, 20° C., rel. humidity 60%, mean of 4-8 repetitions

## CCCCOCCOP(=O)(OCCOCCCC)OCCOCCCC [TBEP, tributoxyethyl phosphate]
[1]
  Crop plant tolerance: more tolerant than other alkyl ester additives
[2]; summary of table 3 (imidacloprid), versus TBP and TPP
  Increase in uptake of active substances compared with prior-art penetration enhancers: advantageously higher increase in uptake of active substances than the penetration enhancers of the prior art

## O=[N+]([O-])NC1=NCCN1Cc1ccc(Cl)nc1 [imidacloprid]
[2]; [3]
  % Penetration after 3 h: 0.3%
  % Penetration after 24 h: 0.5%

## CCOC(=O)OC1=C(c2cc(C)ccc2C)C(=O)N[C@]12CC[C@@H](OC)CC2 [spirotetramat, cis-3-(2,5-dimethylphenyl)-8-methoxy-2-oxo-1-azaspiro[4.5]dec-3-en-4-yl ethyl carbonate]
[2]; [4]
  % Penetration after 3 h: 0%
  % Penetration after 48 h: 0.3%

## N#C/N=C1\SCCN1Cc1ccc(Cl)nc1 [thiacloprid]
[2]; [5]
  % Penetration after 3 h: 0.1%
  % Penetration after 24 h: 0.8%
[2]; [4]
  % Penetration after 3 h: 0.1%
  % Penetration after 48 h: 1.0%
